Data from US20230159453A1 (COCRYSTAL PHARMA, INC., priority 2020, published 2023).

molecular target: SARS2 protease (Severe acute respiratory syndrome coronavirus 2, UniProt P0DTD1); assay: SARS-CoV-2 protease inhibition assay (SARS2 FRET protease assay); type: biochemical; details: IC50 (μM)

Compound | IC50 [µM]
CC(C)C[C@H](NC(=O)OC1CCCC1Cc1ccccc1)C(=O)N[C@@H](C[C@@H]1CCNC1=O)C(=O)CCl (stereo partly drawn) [Compound C199, 2-Benzylcyclopentyl ((S)-1-(((S)-4-chloro-3-oxo-1-((S)-2-oxopyrrolidin-3-yl)butan-2-yl)amino)-4-methyl-1-oxopentan-2-yl)carbamate] | 0.196

same assay, conditions: SARS-CoV-2 protease 25 nM, FRET, peptide substrate 1.3 μM, 30 minutes at 30° C., compounds 20 μM to 1.0 nM; read-out: IC50

Compound | IC50 [µM]
CC(C)(c1cccc(Cl)c1)[C@H](OC(=O)N[C@@H](CC1CCCCC1)C(=O)N[C@@H](C[C@@H]1CCNC1=O)C(=O)C(=O)NC1CC1)c1cccc(F)c1 [Compound C185, (R)-2-(3-chlorophenyl)-1-(3-fluorophenyl)-2-methylpropyl ((S)-3-cyclohexyl-1-(((S)-4-(cyclopropylamino)-3,4-dioxo-1-((S)-2-oxopyrrolidin-3-yl)butan-2-yl)amino)-1-oxopropan-2-yl)carbamate] | 0.143
CC(C)(c1cccc(Cl)c1)C(OC(=O)N[C@@H](CC1CCCCC1)C(=O)N[C@@H](C[C@@H]1CCNC1=O)C(=O)C(=O)NC1CC1)c1ccccc1Cl (stereo partly drawn) [Compound C186, 1-(2-Chlorophenyl)-2-(3-chlorophenyl)-2-methylpropyl ((S)-3-cyclohexyl-1-(((S)-4-(cyclopropylamino)-3,4-dioxo-1-((S)-2-oxopyrrolidin-3-yl)butan-2-yl)amino)-1-oxopropan-2-yl) carbamate] | 1.24
CC(C)C[C@H](NC(=O)OC(c1cccc(Cl)c1)C1(c2cccc(Cl)c2)CC1)C(=O)N[C@@H](C[C@@H]1CCNC1=O)C(=O)C(=O)NC1CC1 (stereo partly drawn) [Compound C187, (3-chlorophenyl)(1-(3-chlorophenyl)cyclopropyl)methyl ((S)-1-(((S)-4-(cyclopropylamino)-3,4-dioxo-1-((S)-2-oxopyrrolidin-3-yl)butan-2-yl)amino)-4-methyl-1-oxopentan-2-yl)carbamate] | 0.109
CC(C)(C)C(=O)N1CCC2(CC1)CC(CC(NC(=O)[C@H](CC1CCCCC1)NC(=O)OCc1cccc(Cl)c1)C(=O)C(=O)NC1CC1)C(=O)N2 (stereo partly drawn) [Compound C188, 3-Chlorobenzyl ((2S)-3-cyclohexyl-1-((4-(cyclopropylamino)-3,4-dioxo-1-(2-oxo-8-pivaloyl-1,8-diazaspiro[4.5]decan-3-yl)butan-2-yl)amino)-1-oxopropan-2-yl)carbamate] | 1.89
CS(=O)(=O)N1CCC2(CC1)CC(CC(C=O)NC(=O)[C@H](CC1CCCCC1)NC(=O)OC1CCCC1Cc1cccc(Cl)c1)C(=O)N2 (stereo partly drawn) [Compound C189, 2-(3-Chlorobenzyl)cyclopentyl ((2S)-3-cyclohexyl-1-((1-(8-(methylsulfonyl)-2-oxo-1,8-diazaspiro[4.5]decan-3-yl)-3-oxopropan-2-yl)amino)-1-oxopropan-2-yl)carbamate] | 0.34
COc1cccc2[nH]c(C(=O)N[C@@H](CC3CCCCC3)C(=O)NC(CC3CC4(CCOCC4)NC3=O)C(=O)C(=O)NC3CC3)cc12 (stereo partly drawn) [Compound C191, N-((2S)-3-Cyclohexyl-1-((4-(cyclopropylamino)-3,4-dioxo-1-(2-oxo-8-oxa-1-azaspiro[4.5]decan-3-yl)butan-2-yl)amino)-1-oxopropan-2-yl)-4-methoxy-1H-indole-2-carboxamide] | 0.305
O=C(N[C@@H](CC1CCCCC1)C(=O)NC(CC1CC2(CCCCC2)NC1=O)C(=O)C(=O)NC1CC1)OC1CCCC1Cc1cccc(Cl)c1 (stereo partly drawn) [Compound C192, 2-(3-Chlorobenzyl)cyclopentyl ((2S)-3-cyclohexyl-1-((4-(cyclopropylamino)-3,4-dioxo-1-(2-oxo-1-azaspiro[4.5]decan-3-yl)butan-2-yl)amino)-1-oxopropan-2-yl)carbamate] | 0.617
COc1cccc2[nH]c(C(=O)N[C@@H](CC3CCCCC3)C(=O)NC(C=O)CC3CC4(CCCCC4)NC3=O)cc12 (stereo partly drawn) [Compound C193, N-((2S)-3-Cyclohexyl-1-oxo-1-((1-oxo-3-(2-oxo-1-azaspiro[4.5]decan-3-yl)propan-2-yl)amino)propan-2-yl)-4-methoxy-1H-indole-2-carboxamide] | 0.0007
CC(C)C[C@H](NC(=O)OC1(Cc2ccccc2)CCC1)C(=O)N[C@@H](C[C@@H]1CCNC1=O)C(=O)CCl [Compound C194, 1-Benzylcyclobutyl ((S)-1-(((S)-4-chloro-3-oxo-1-((S)-2-oxopyrrolidin-3-yl)butan-2-yl)amino)-4-methyl-1-oxopentan-2-yl) carbamate] | 0.485
O=C(N[C@@H](CC1CCCCC1)C(=O)NC(CC1CC2(CCCCC2)NC1=O)C(=O)C(=O)NC1CC1)OC(Cc1cccc(Cl)c1)c1cccc(Cl)c1 (stereo partly drawn) [Compound C195, 1,2-Bis(3-chlorophenyl)ethyl ((2S)-3-cyclohexyl-1-((4-(cyclopropylamino)-3,4-dioxo-1-(2-oxo-1-azaspiro[4.5]decan-3-yl)butan-2-yl)amino)-1-oxopropan-2-yl)carbamate] | 2.01
CC(C)C[C@H](NC(=O)OC1CCCC1Cc1cccc(Cl)c1)C(=O)N[C@@H](C[C@@H]1CCNC1=O)C(=O)C(=O)NC1CC1 (stereo partly drawn) [Compound C196, 2-(3-Chlorobenzyl)cyclopentyl ((S)-1-(((S)-4-(cyclopropylamino)-3,4-dioxo-1-((S)-2-oxopyrrolidin-3-yl)butan-2-yl)amino)-4-methyl-1-oxopentan-2-yl)carbamate] | 0.108
O=C(N[C@@H](CC1CCCCC1)C(=O)N[C@@H](CC1CC2(CCCCC2)NC1=O)C(=O)CCl)OCc1cccc(Cl)c1 (stereo partly drawn) [Compound C197, 3-Chlorobenzyl ((2S)-1-(((2S)-4-chloro-3-oxo-1-(2-oxo-1-azaspiro[4.5]decan-3-yl)butan-2-yl)amino)-3-cyclohexyl-1-oxopropan-2-yl)carbamate] | 0.62
CC1(C)CC(CC(C=O)NC(=O)[C@H](CC2CCCCC2)NC(=O)OCc2cccc(Cl)c2)C(=O)N1 (stereo partly drawn) [Compound C198, 3-chlorobenzyl ((2S)-3-cyclohexyl-1-((1-(5,5-dimethyl-2-oxopyrrolidin-3-yl)-3-oxopropan-2-yl)amino)-1-oxopropan-2-yl)carbamate] | 0.0047
O=C[C@H](CC1CC2(CCOCC2)NC1=O)NC(=O)[C@H](CC1CCCCC1)NC(=O)OCc1cccc(Cl)c1 (stereo partly drawn) [Compound C200, 3-Chlorobenzyl ((2S)-3-cyclohexyl-1-oxo-1-(((2S)-1-oxo-3-(2-oxo-8-oxa-1-azaspiro[4.5]decan-3-yl)propan-2-yl)amino)propan-2-yl)carbamate] | 0.00065
CC(C)C[C@H](NC(=O)OC(c1ccc(Cl)cc1)C1(c2cccc(Cl)c2)CC1)C(=O)N[C@@H](C[C@@H]1CCNC1=O)C(=O)C(=O)NC1CC1 (stereo partly drawn) [Compound C201, (4-Chlorophenyl)(1-(3-chlorophenyl)cyclopropyl) methyl ((S)-1-(((S)-4-(cyclopropylamino)-3,4-dioxo-1-((S)-2-oxopyrrolidin-3-yl)butan-2-yl)amino)-4-methyl-1-oxopentan-2-yl) carbamate] | 0.0044
CC(C)(C)C(=O)N1CCC2(CC1)CC(CC(C=O)NC(=O)[C@H](CC1CCCCC1)NC(=O)OC1CCCC1Cc1cccc(Cl)c1)C(=O)N2 (stereo partly drawn) [Compound C202, 2-(3-Chlorobenzyl) cyclopentyl ((2S)-3-cyclohexyl-1-oxo-1-((1-oxo-3-(2-oxo-8-pivaloyl-1,8-diazaspiro[4.5]decan-3-yl)propan-2-yl)amino)propan-2-yl)carbamate] | 0.644
CC(C)C[C@H](NC(=O)OC(c1cccc(Cl)c1)C1(c2cccc(Cl)c2)CC1)C(=O)N[C@H](C=O)C[C@@H]1CCNC1=O (stereo partly drawn) [Compound C203, (3-chlorophenyl)(1-(3-chlorophenyl)cyclopropyl)methyl ((S)-4-methyl-1-oxo-1-(((S)-1-oxo-3-((S)-2-oxopyrrolidin-3-yl)propan-2-yl)amino)pentan-2-yl)carbamate] | 0.0105
CC(C)C[C@H](NC(=O)OC1(Cc2cccc(Cl)c2)CCC1)C(=O)NC(C=O)CC1CC2(CCOCC2)NC1=O (stereo partly drawn) [Compound C204] | 0.224
CC1(C)CC(CC(NC(=O)[C@H](CC2CCCCC2)NC(=O)OC(c2cccc(F)c2)C(C)(C)c2cccc(Cl)c2)C(=O)C(=O)NC2CC2)C(=O)N1 (stereo partly drawn) [Compound C205, 2-(3-Chlorophenyl)-1-(3-fluorophenyl)-2-methylpropyl ((2S)-3-cyclohexyl-1-((4-(cyclopropylamino)-1-(5,5-dimethyl-2-oxopyrrolidin-3-yl)-3,4-dioxobutan-2-yl)amino)-1-oxopropan-2-yl)carbamate] | 2.56
O=C(N[C@@H](CC1CCCCC1)C(=O)NC(CC1CC2(CCOCC2)NC1=O)C(=O)C(=O)NC1CC1)OC1CCCC1Cc1cccc(Cl)c1 (stereo partly drawn) [Compound C206, 2-(3-Chlorobenzyl)cyclopentyl ((2S)-3-cyclohexyl-1-((4-(cyclopropylamino)-3,4-dioxo-1-(2-oxo-8-oxa-1-azaspiro[4.5]decan-3-yl)butan-2-yl)amino)-1-oxopropan-2-yl)carbamate] | 5.11
CC(C)C[C@H](NC(=O)OC(c1ccccc1)C(C)(C)c1cccc(Cl)c1)C(=O)N[C@@H](C[C@@H]1CCNC1=O)C(=O)C(N)=O (stereo partly drawn) [Compound C207, 2-(3-Chlorophenyl)-2-methyl-1-phenylpropyl ((S)-1-(((S)-4-amino-3,4-dioxo-1-((S)-2-oxopyrrolidin-3-yl)butan-2-yl)amino)-4-methyl-1-oxopentan-2-yl)carbamate] | 0.315
CC(C)C[C@H](NC(=O)OC(c1ccccc1)C(C)(C)c1cccc(Cl)c1)C(=O)N[C@@H](C[C@@H]1CCNC1=O)C(=O)CCl (stereo partly drawn) [Compound C209, 2-(3-Chlorophenyl)-2-methyl-1-phenylpropyl ((S)-1-(((S)-4-chloro-3-oxo-1-((S)-2-oxopyrrolidin-3-yl)butan-2-yl)amino)-4-methyl-1-oxopentan-2-yl)carbamate] | 1.87
CC(C)(C)C(=O)N1CCC2(CC1)CC(CC(NC(=O)[C@H](CC1CCCCC1)NC(=O)OC1CCCC1Cc1cccc(Cl)c1)C(=O)C(=O)NC1CC1)C(=O)N2 (stereo partly drawn) [Compound C210, 2-(3-Chlorobenzyl) cyclopentyl ((2S)-3-cyclohexyl-1-((4-(cyclopropylamino)-3,4-dioxo-1-(2-oxo-8-pivaloyl-1,8-diazaspiro[4.5]decan-3-yl)butan-2-yl)amino)-1-oxopropan-2-yl) carbamate] | 2.65
